According to US12257237B2 (priority 2017, dated 2025):

Assay: Drug tolerability (body weight) in DD013 dedifferentiated liposarcoma xenograft model
Type: in vivo, Athymic nude mice
Conditions: Doxo (8 mg/kg)
Description: Experiments were performed with female Athymic nude mice, 9-10 weeks old obtained from Harlan Laboratories (Udine, Italy). They were maintained under Specific Pathogen Free conditions with constant temperature and humidity, according to the institutional guidelines.
Tumour growth mice was monitored two/three times a week (depending on tumour growth rate, to avoid unnecessary stress to the animals) by Vernier caliper. Mice were sacrificed when tumour reached a mean weight of 2±0.5 gr. The antitumour activity will be expressed as T/C %, where T and C were the mean tumour weight of treated and control groups, respectively. Mice were monitored daily and weighted at least two times a week. Tolerability was evaluated on the basis of body weight loss (BWL) and clinical observation.

Compound: COc1cccc2c1C(=O)c1c(O)c3c(c(O)c1C2=O)C[C@@](O)(C(=O)CO)C[C@@H]3O[C@H]1C[C@H](N)[C@H](O)[C@H](C)O1 [Doxo]
- BWL % (day 23 from inoculum): 0.0%
- Mouse body weight, Mean (day 23 from inoculum): 23.7 g
- BWL % (day 26 from inoculum): −2.6%
- Mouse body weight, Mean (day 26 from inoculum): 23.0 g
- BWL % (day 29 from inoculum): −0.3%
- Mouse body weight, Mean (day 29 from inoculum): 23.6 g
- BWL % (day 33 from inoculum): −5.2%
- Mouse body weight, Mean (day 33 from inoculum): 22.4 g
- BWL % (day 36 from inoculum): −1.7%
- Mouse body weight, Mean (day 36 from inoculum): 23.3 g
- BWL % (day 40 from inoculum): 0.7%
- Mouse body weight, Mean (day 40 from inoculum): 23.8 g
- BWL % (day 43 from inoculum): 4.0%
- Mouse body weight, Mean (day 43 from inoculum): 24.6 g
- BWL % (day 47 from inoculum): 8.4%
- Mouse body weight, Mean (day 47 from inoculum): 25.7 g
- BWL % (day 50 from inoculum): 5.1%
- Mouse body weight, Mean (day 50 from inoculum): 24.9 g
- BWL % (day 54 from inoculum): 5.5%
- Mouse body weight, Mean (day 54 from inoculum): 25.0 g
- BWL % (day 58 from inoculum): 5.8%
- Mouse body weight, Mean (day 58 from inoculum): 25.0 g
- BWL % (day 62 from inoculum): 8.9%
- Mouse body weight, Mean (day 62 from inoculum): 25.8 g
- BWL % (day 65 from inoculum): 7.4%
- Mouse body weight, Mean (day 65 from inoculum): 25.4 g
- Mouse body weight, Mean (day 69 from inoculum): 26.6 g
- BWL % (day 72 from inoculum): 10.0%
- Mouse body weight, Mean (day 72 from inoculum): 26.0 g
- BWL % (day 75 from inoculum): 10.3%
- Mouse body weight, Mean (day 75 from inoculum): 26.1 g
